Laboratory results from ChEMBL document CHEMBL5729354, “Substituted pyrrolo[2,3-d]pyrimidines as JAK inhibitors” (2022).

Tests used:
[1] = target: Non-receptor tyrosine-protein kinase TYK2 (Homo sapiens, UniProt P29597); assay: (§1) JAK/TYK2 Assay: 10 mM test compound stock or 1 mM control compound stock (tofocitinib, ruxolitinib or staurosporine) in DMSO was diluted to 0.4 mM in DMSO. A 3-fold series dilution was then performed in DMSO to generate 10 different compound concentrations. The assay was carried out in 384-well white plate. 0.5 uL of 40× compound DMSO solution at different concentrations was mixed with 10 uL 2× enzyme prepared in reaction buffer (20 mM HEPES, 10 mM MgCl2, 0.01% Tween, 1 mM DTT, pH 7.5). 10 uL 2× substrate mixture prepared in reaction buffer was then added to start the reaction. A short spin was done to settle down all solutions to the bottom of the plate. Final concentrations of test compound in the reaction mixture were 10000, 3333, 1111, 370, 123, 41.2, 13.7, 4.57, 1.52 and 0.51 nM. Concentrations of control compound were ten times less. Enzymatic reaction was conducted at 25° C. for 1-2 hours. 10 uL of Kinase Glo Reagents was added to stop the reaction and generate the luminescent signal which was measured using Envision. Luminescence signal was inversely related to kinase activity. […] The mixture without any compound was the positive control. [ATP] [sub] timeJAK1 7.5 nM 2 uM 30 uM (IRS-1) 1 hrJAK2 0.8 nM 2 uM 4 uM (pEY) 1 hrJAK3 1.5 nM 2 uM 4 uM (pEY) 1 hrTYK2 9 nM 2 uM 30 uM (IRS-1) 1 hr
[2] = target: T1, Tyrosine-protein kinase JAK3 (Homo sapiens, UniProt P52333); assay: as §1
T1 sequence (P52333 whole entry): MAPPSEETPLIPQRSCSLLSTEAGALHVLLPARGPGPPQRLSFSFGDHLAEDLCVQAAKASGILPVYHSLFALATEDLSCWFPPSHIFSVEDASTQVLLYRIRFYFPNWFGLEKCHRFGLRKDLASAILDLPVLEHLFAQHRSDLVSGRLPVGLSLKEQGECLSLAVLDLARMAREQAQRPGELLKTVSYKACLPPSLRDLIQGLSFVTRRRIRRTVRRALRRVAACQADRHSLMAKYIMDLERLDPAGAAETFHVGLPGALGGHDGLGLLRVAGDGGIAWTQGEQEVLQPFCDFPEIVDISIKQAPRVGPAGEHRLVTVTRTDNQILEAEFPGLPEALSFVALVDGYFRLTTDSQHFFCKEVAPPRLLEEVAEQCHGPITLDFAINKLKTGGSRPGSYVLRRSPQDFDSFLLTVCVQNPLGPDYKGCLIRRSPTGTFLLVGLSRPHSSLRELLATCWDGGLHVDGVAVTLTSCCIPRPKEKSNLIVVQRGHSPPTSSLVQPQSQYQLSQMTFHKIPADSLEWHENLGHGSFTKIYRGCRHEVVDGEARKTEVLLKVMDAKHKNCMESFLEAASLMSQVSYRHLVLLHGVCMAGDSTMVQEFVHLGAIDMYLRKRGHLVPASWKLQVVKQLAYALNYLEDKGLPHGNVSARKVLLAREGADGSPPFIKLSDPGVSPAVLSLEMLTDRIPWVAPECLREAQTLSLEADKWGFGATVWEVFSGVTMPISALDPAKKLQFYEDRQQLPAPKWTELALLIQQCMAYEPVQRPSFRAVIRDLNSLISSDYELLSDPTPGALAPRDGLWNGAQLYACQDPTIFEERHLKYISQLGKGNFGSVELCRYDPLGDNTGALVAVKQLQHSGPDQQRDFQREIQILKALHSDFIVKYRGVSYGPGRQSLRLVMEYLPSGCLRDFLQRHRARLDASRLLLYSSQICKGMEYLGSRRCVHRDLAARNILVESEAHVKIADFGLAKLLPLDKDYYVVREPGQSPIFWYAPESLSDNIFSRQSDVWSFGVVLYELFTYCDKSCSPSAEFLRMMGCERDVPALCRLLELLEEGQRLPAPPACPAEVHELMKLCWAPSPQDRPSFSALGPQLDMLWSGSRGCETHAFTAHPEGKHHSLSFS

[3] = target: Tyrosine-protein kinase JAK1 (Homo sapiens, UniProt P23458); assay: as §1
[4] = target: Tyrosine-protein kinase JAK2 (Homo sapiens, UniProt O60674); assay: as §1
Chain of Tyrosine-protein kinase JAK2 (O60674 whole entry): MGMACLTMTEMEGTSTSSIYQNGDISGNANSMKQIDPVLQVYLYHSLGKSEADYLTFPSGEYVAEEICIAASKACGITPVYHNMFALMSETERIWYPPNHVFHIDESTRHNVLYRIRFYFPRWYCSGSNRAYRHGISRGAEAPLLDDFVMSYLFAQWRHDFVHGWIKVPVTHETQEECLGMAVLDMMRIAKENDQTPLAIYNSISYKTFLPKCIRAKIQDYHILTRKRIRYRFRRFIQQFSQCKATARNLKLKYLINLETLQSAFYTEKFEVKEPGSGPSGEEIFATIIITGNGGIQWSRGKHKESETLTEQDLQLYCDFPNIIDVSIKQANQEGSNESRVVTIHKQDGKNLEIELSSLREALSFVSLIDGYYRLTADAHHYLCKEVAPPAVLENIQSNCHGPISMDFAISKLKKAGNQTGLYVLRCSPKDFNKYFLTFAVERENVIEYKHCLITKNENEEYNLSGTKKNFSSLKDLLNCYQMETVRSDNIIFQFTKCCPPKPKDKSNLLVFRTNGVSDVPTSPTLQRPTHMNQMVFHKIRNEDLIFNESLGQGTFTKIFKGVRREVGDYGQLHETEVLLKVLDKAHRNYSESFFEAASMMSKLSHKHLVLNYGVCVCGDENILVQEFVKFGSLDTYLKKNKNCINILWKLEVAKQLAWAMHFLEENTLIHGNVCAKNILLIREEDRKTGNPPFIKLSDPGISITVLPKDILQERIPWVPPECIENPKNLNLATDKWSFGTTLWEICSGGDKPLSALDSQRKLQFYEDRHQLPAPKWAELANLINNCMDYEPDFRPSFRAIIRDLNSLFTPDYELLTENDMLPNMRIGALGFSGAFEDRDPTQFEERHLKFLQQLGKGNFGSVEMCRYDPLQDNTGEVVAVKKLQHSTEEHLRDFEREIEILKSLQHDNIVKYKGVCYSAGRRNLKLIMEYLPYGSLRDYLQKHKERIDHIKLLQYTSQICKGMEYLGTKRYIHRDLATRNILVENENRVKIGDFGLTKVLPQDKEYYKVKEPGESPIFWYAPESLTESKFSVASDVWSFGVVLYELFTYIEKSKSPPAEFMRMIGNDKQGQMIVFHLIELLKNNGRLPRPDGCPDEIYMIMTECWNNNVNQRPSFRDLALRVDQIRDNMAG

Chain of Non-receptor tyrosine-protein kinase TYK2 (P29597 whole entry): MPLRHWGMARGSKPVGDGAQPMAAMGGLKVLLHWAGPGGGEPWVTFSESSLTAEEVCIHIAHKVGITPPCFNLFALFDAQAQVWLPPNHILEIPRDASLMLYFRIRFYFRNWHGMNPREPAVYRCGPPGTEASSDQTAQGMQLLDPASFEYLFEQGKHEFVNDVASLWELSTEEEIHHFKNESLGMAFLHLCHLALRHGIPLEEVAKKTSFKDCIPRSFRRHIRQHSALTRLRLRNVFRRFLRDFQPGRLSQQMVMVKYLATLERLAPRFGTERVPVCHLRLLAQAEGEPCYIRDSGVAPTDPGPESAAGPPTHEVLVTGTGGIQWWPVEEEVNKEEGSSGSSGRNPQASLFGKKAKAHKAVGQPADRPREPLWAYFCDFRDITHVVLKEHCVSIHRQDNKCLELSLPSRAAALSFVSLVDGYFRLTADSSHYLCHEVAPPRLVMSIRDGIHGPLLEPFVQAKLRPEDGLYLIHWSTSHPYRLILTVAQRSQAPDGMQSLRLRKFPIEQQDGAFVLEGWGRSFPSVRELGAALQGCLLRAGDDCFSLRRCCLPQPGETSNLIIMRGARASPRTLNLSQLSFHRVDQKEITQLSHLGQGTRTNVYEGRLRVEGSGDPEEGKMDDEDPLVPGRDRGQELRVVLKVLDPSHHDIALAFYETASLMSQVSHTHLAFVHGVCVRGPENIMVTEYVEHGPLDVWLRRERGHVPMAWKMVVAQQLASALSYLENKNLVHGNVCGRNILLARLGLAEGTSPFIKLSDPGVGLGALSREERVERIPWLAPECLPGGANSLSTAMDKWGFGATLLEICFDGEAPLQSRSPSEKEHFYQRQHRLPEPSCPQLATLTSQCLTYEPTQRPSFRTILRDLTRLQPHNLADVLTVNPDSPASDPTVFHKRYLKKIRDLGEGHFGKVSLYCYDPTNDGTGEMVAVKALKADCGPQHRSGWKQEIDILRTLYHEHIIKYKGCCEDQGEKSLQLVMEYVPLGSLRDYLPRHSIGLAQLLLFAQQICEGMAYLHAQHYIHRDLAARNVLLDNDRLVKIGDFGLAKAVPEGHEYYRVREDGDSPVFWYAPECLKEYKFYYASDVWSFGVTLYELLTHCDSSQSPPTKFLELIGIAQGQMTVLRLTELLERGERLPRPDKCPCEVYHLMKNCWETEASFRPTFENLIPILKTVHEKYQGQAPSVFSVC
Chain of Tyrosine-protein kinase JAK1 (P23458 whole entry): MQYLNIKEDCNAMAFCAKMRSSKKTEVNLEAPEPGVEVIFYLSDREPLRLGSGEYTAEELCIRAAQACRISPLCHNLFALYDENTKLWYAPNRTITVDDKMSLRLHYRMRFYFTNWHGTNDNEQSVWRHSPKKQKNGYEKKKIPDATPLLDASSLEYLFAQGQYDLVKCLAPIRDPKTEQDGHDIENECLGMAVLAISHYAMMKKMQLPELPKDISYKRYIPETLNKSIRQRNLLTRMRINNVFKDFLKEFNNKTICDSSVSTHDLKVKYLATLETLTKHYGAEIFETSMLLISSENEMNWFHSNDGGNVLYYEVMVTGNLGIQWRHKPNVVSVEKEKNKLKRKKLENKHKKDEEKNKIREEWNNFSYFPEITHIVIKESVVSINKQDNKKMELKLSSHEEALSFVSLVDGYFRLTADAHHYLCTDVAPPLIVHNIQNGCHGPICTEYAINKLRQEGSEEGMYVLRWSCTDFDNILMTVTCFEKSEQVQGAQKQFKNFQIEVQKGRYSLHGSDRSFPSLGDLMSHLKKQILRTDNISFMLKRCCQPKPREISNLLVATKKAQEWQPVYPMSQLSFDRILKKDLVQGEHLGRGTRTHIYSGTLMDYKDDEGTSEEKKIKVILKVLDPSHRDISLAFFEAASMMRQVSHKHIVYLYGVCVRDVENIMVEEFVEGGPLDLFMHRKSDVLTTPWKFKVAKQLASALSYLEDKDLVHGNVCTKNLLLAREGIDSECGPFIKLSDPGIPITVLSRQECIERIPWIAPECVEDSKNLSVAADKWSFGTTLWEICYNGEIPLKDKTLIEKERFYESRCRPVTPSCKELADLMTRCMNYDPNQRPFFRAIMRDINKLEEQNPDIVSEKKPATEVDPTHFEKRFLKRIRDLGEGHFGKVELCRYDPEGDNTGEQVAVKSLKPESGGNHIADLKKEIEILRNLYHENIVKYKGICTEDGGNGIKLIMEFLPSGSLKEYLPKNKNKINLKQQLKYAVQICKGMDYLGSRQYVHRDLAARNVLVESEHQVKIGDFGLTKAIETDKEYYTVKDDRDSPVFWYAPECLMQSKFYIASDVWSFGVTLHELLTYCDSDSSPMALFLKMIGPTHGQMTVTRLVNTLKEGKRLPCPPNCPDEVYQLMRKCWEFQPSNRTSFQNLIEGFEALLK

- IC50 [1]: < 100 nM
- IC50 [2]: < 100 nM
- IC50 [3]: < 100 nM
- IC50 [4]: < 100 nM
SMILES: CCC(CC)Cn1ccc2cnc(Nc3cnn(CC(=O)O[C@@H]4C[C@@H](C(=O)OC)N(C)C4)c3)nc21
